Like-named read-outs stand apart in the source and are kept apart here. No end group written: not given here.
What was measured:
[1] = tested on: BHK-21 cells; assay: MTT cytotoxicity, BHK-21 cells; type: cell-based, hamster; details: 24 h peptide treatment, 3-200 µM, 37 °C, absorbance 570 nm, nonlinear regression, at least three independent experiments
Procedure: (§1) BHK-21, U-87 MG, A-72, and CRFK cells were seeded in 96-well plates at an initial density of 2 × 10^4 cells per well and incubated for 24 h at 37 °C. Then, serial dilutions of peptides ranging from 3 to 200 µM were added to the cell monolayer and incubated for 24 h at 37 °C. Cytotoxicity was evaluated by adding 5 μL of methylthiazolyldiphenyl-tetrazolium bromide (MTT; cod. M2003, Sigma-Aldrich, St. Louis, MO, USA) to each well. After 4 h of incubation, the plate was emptied, and formazan crystals were solubilized with dimethyl sulfoxide (DMSO; 100%). Cell viability was calculated by measuring absorbance at 570 nm using a microplate reader. The negative control (CTRL−, toxicity control) consisted of cells treated with DMSO, while the positive control (CTRL+, viable cells) included untreated cells.
(§2) All tests were performed in triplicate and expressed as mean ± standard deviation (SD). Graphs and statistical analysis were generated using GraphPad Prism version 9.5.1 for macOS (GraphPad Software, San Diego, CA, USA, www.graphpad.com, accessed on 5 February 2025). The 50% cytotoxic concentration (CC50) and the 50% inhibitory concentration (IC50) were calculated by nonlinear regression analysis based on dose–response curves generated from at least three independent experiments.

[2] = tested on: CRFK cells; assay: MTT cytotoxicity, CRFK cells; type: cell-based, feline; details: 24 h peptide treatment, 3-200 µM, 37 °C, absorbance 570 nm, nonlinear regression, at least three independent experiments
Procedure: as §1, §2

[3] = tested on: U-87 MG cells; assay: MTT cytotoxicity, U-87 MG cells; type: cell-based, human; details: 24 h peptide treatment, 3-200 µM, 37 °C, absorbance 570 nm, nonlinear regression, at least three independent experiments
Procedure: as §1, §2

[4] = tested on: SBV; details: 48 h
[5] = tested on: BHK-21, A-72, CRFK, and U-87 MG cells; assay: MTT cytotoxicity, statements for all tested cell lines; type: cell-based; details: 24 h, concentrations of 50 μM and below
Procedure: as §1

[6] = tested on: A-72 cells; assay: MTT cytotoxicity, A-72 cells; type: cell-based, canine; details: 24 h peptide treatment, 3-200 µM, 37 °C, absorbance 570 nm, nonlinear regression, at least three independent experiments
Procedure: as §1, §2

[7] = tested on: SBV; details: 1 h
[8] = tested on: SBV; details: 48 h; remark: listed apart in the source
[9] = tested on: TOSV; details: 24 h
[10] = tested on: TOSV; details: 24 h; remark: listed apart in the source
[11] = tested on: TOSV; details: 24 h; remark: listed apart in the source

Row | Substance | CC50 [1] [µM] | CC50 [2] [µM] | CC50 [3] [µM] | IC50 [4] [µM] | Cytotoxicity at 50 μM and below [5] | CC50 [6] [µM] | IC50 [7] [µM] | IC50 [8] [µM] | IC50 [9] [µM] | IC50 [10] [µM] | IC50 [11] [µM]
1 | GILGKLWEGFKSIV-NH2 [pantinin-1] | 136.6 | 93.5 | 114.3 | 5.8 | neither pantinin-1 nor pantinin-2 induced any detectable cytotoxicity | 93.6 | 12.8 | 6 | – | – | –
2 | IFGAIWKGISSLL-NH2 [pantinin-2] | 100.8 | 82.2 | 82 | – | neither pantinin-1 nor pantinin-2 induced any detectable cytotoxicity | 90.7 | 4.8 | – | 3 | 3 | 3

Reference: paper PMC12300298, “Expanding the Antiviral Spectrum of Scorpion-Derived Peptides Against Toscana Virus and Schmallenberg Virus” (Pathogens, 2025)
